Assay results taken from the supplement of paper PMC10307832.

Experiments:
Assay in all cases: relative viability (nuclei count vs DMSO), 5 days (fraction); higher = more cells survive
Apatinib + Tozasertib = compound: N#CC1(c2ccc(NC(=O)c3cccnc3NCc3ccncc3)cc2)CCCC1 [Apatinib] + Cc1cc(Nc2cc(N3CCN(C)CC3)nc(Sc3ccc(NC(=O)C4CC4)cc3)n2)n[nH]1 [Tozasertib] (partner 0.1 µM)
Outline: (§1)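 Relative viability is defined as nuclei in treated wells over nuclei in vehicle wells. Duplicate plates were run and medians reported. Lung cancer cell lines in 1536-well plates were dosed by pin tool one day after seeding, with one drug or with a fixed anchor-drug dose plus five library-drug doses (not always all listed) in √10 steps, and nuclei were counted after 5 days.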

Apatinib + Alpelisib = compound: N#CC1(c2ccc(NC(=O)c3cccnc3NCc3ccncc3)cc2)CCCC1 [Apatinib] + Cc1nc(NC(=O)N2CCC[C@H]2C(N)=O)sc1-c1ccnc(C(C)(C)C(F)(F)F)c1 [Alpelisib] (partner 2 µM)
Outline: as §1

Apatinib + Olaparib = compound: N#CC1(c2ccc(NC(=O)c3cccnc3NCc3ccncc3)cc2)CCCC1 [Apatinib] + O=C(c1cc(Cc2n[nH]c(=O)c3ccccc23)ccc1F)N1CCN(C(=O)C2CC2)CC1 [Olaparib] (partner 8 µM)
Outline: as §1

Metformin + Lapatinib = compound: CN(C)C(=N)NC(=N)N [Metformin] + CS(=O)(=O)CCNCc1ccc(-c2ccc3ncnc(Nc4ccc(OCc5cccc(F)c5)c(Cl)c4)c3c2)o1 [Lapatinib] (partner 2 µM)
Outline: as §1

NCI-H2170
relative viability (Apatinib + Tozasertib; first compound 0.08 µM): 0.86
relative viability (Apatinib + Tozasertib; first compound 0.253 µM): 0.879
relative viability (Apatinib + Tozasertib; first compound 0.8 µM): 0.677
relative viability (Apatinib + Tozasertib; first compound 2.53 µM): 0.652
relative viability (Apatinib + Tozasertib; first compound 8 µM): 0.51
relative viability (Apatinib + Alpelisib; first compound 0.08 µM): 0.884
relative viability (Apatinib + Alpelisib; first compound 0.253 µM): 0.776
relative viability (Apatinib + Alpelisib; first compound 0.8 µM): 0.8
relative viability (Apatinib + Alpelisib; first compound 2.53 µM): 0.743
relative viability (Apatinib + Alpelisib; first compound 8 µM): 0.706
relative viability (Apatinib + Olaparib; first compound 0.08 µM): 0.617
relative viability (Apatinib + Olaparib; first compound 0.253 µM): 0.623
relative viability (Apatinib + Olaparib; first compound 0.8 µM): 0.638
relative viability (Apatinib + Olaparib; first compound 2.53 µM): 0.49
relative viability (Apatinib + Olaparib; first compound 8 µM): 0.485
relative viability (Metformin + Lapatinib; first compound 10 µM): 0.273
relative viability (Metformin + Lapatinib; first compound 31.62 µM): 0.247
relative viability (Metformin + Lapatinib; first compound 100 µM): 0.302
relative viability (Metformin + Lapatinib; first compound 316.23 µM): 0.288
relative viability (Metformin + Lapatinib; first compound 1000 µM): 0.288

LCLC-97TM1
relative viability (Apatinib + Tozasertib; first compound 0.08 µM): 0.226
relative viability (Apatinib + Tozasertib; first compound 0.253 µM): 0.255
relative viability (Apatinib + Tozasertib; first compound 0.8 µM): 0.173
relative viability (Apatinib + Tozasertib; first compound 2.53 µM): 0.2
relative viability (Apatinib + Tozasertib; first compound 8 µM): 0.165
relative viability (Apatinib + Alpelisib; first compound 0.08 µM): 0.281
relative viability (Apatinib + Alpelisib; first compound 0.253 µM): 0.21
relative viability (Apatinib + Alpelisib; first compound 0.8 µM): 0.256
relative viability (Apatinib + Alpelisib; first compound 2.53 µM): 0.206
relative viability (Apatinib + Alpelisib; first compound 8 µM): 0.154
relative viability (Apatinib + Olaparib; first compound 0.08 µM): 0.524
relative viability (Apatinib + Olaparib; first compound 0.253 µM): 0.541
relative viability (Apatinib + Olaparib; first compound 0.8 µM): 0.353
relative viability (Apatinib + Olaparib; first compound 2.53 µM): 0.351
relative viability (Apatinib + Olaparib; first compound 8 µM): 0.172
relative viability (Metformin + Lapatinib; first compound 10 µM): 0.888
relative viability (Metformin + Lapatinib; first compound 31.62 µM): 1.36
relative viability (Metformin + Lapatinib; first compound 100 µM): 0.888
relative viability (Metformin + Lapatinib; first compound 316.23 µM): 1.08
relative viability (Metformin + Lapatinib; first compound 1000 µM): 1.53

NCI-H1993
relative viability (Apatinib + Tozasertib; first compound 0.08 µM): 0.637
relative viability (Apatinib + Tozasertib; first compound 0.253 µM): 0.619
relative viability (Apatinib + Tozasertib; first compound 0.8 µM): 0.605
relative viability (Apatinib + Tozasertib; first compound 2.53 µM): 0.583
relative viability (Apatinib + Tozasertib; first compound 8 µM): 0.595
relative viability (Apatinib + Alpelisib; first compound 0.08 µM): 0.779
relative viability (Apatinib + Alpelisib; first compound 0.253 µM): 0.675
relative viability (Apatinib + Alpelisib; first compound 0.8 µM): 0.703
relative viability (Apatinib + Alpelisib; first compound 2.53 µM): 0.656
relative viability (Apatinib + Alpelisib; first compound 8 µM): 0.654
relative viability (Apatinib + Olaparib; first compound 0.08 µM): 0.991
relative viability (Apatinib + Olaparib; first compound 0.253 µM): 1.05
relative viability (Apatinib + Olaparib; first compound 0.8 µM): 1.05
relative viability (Apatinib + Olaparib; first compound 2.53 µM): 0.984
relative viability (Apatinib + Olaparib; first compound 8 µM): 1.04
relative viability (Metformin + Lapatinib; first compound 10 µM): 0.761
relative viability (Metformin + Lapatinib; first compound 31.62 µM): 0.823
relative viability (Metformin + Lapatinib; first compound 100 µM): 0.814
relative viability (Metformin + Lapatinib; first compound 316.23 µM): 0.741
relative viability (Metformin + Lapatinib; first compound 1000 µM): 0.804

NCI-H520
relative viability (Apatinib + Tozasertib; first compound 0.08 µM): 0.445
relative viability (Apatinib + Tozasertib; first compound 0.253 µM): 0.427
relative viability (Apatinib + Tozasertib; first compound 0.8 µM): 0.437
relative viability (Apatinib + Tozasertib; first compound 2.53 µM): 0.409
relative viability (Apatinib + Tozasertib; first compound 8 µM): 0.417
relative viability (Apatinib + Alpelisib; first compound 0.08 µM): 0.924
relative viability (Apatinib + Alpelisib; first compound 0.253 µM): 0.865
relative viability (Apatinib + Alpelisib; first compound 0.8 µM): 0.918
relative viability (Apatinib + Alpelisib; first compound 2.53 µM): 0.685
relative viability (Apatinib + Alpelisib; first compound 8 µM): 0.633
relative viability (Apatinib + Olaparib; first compound 0.08 µM): 0.375
relative viability (Apatinib + Olaparib; first compound 0.253 µM): 0.32
relative viability (Apatinib + Olaparib; first compound 0.8 µM): 0.401
relative viability (Apatinib + Olaparib; first compound 2.53 µM): 0.28
relative viability (Apatinib + Olaparib; first compound 8 µM): 0.314
relative viability (Metformin + Lapatinib; first compound 10 µM): 0.849
relative viability (Metformin + Lapatinib; first compound 31.62 µM): 1.07
relative viability (Metformin + Lapatinib; first compound 100 µM): 0.948
relative viability (Metformin + Lapatinib; first compound 316.23 µM): 0.768
relative viability (Metformin + Lapatinib; first compound 1000 µM): 0.892

SK-MES-1
relative viability (Apatinib + Tozasertib; first compound 0.08 µM): 0.972
relative viability (Apatinib + Tozasertib; first compound 0.253 µM): 0.928
relative viability (Apatinib + Tozasertib; first compound 0.8 µM): 0.729
relative viability (Apatinib + Tozasertib; first compound 2.53 µM): 0.77
relative viability (Apatinib + Tozasertib; first compound 8 µM): 0.484
relative viability (Apatinib + Alpelisib; first compound 0.08 µM): 0.825
relative viability (Apatinib + Alpelisib; first compound 0.253 µM): 0.928
relative viability (Apatinib + Alpelisib; first compound 0.8 µM): 0.822
relative viability (Apatinib + Alpelisib; first compound 2.53 µM): 0.929
relative viability (Apatinib + Alpelisib; first compound 8 µM): 0.658
relative viability (Apatinib + Olaparib; first compound 0.08 µM): 0.858
relative viability (Apatinib + Olaparib; first compound 0.253 µM): 0.665
relative viability (Apatinib + Olaparib; first compound 0.8 µM): 0.627
relative viability (Apatinib + Olaparib; first compound 2.53 µM): 0.592
relative viability (Apatinib + Olaparib; first compound 8 µM): 0.411
relative viability (Metformin + Lapatinib; first compound 10 µM): 0.452
relative viability (Metformin + Lapatinib; first compound 31.62 µM): 0.488
relative viability (Metformin + Lapatinib; first compound 100 µM): 0.516
relative viability (Metformin + Lapatinib; first compound 316.23 µM): 0.463
relative viability (Metformin + Lapatinib; first compound 1000 µM): 0.485

NCI-H2085
relative viability (Apatinib + Tozasertib; first compound 0.08 µM): 0.844
relative viability (Apatinib + Tozasertib; first compound 0.253 µM): 0.767
relative viability (Apatinib + Tozasertib; first compound 0.8 µM): 0.726
relative viability (Apatinib + Tozasertib; first compound 2.53 µM): 0.379
relative viability (Apatinib + Tozasertib; first compound 8 µM): 0.406
relative viability (Apatinib + Alpelisib; first compound 0.08 µM): 1.05
relative viability (Apatinib + Alpelisib; first compound 0.253 µM): 0.931
relative viability (Apatinib + Alpelisib; first compound 0.8 µM): 0.931
relative viability (Apatinib + Alpelisib; first compound 2.53 µM): 0.858
relative viability (Apatinib + Alpelisib; first compound 8 µM): 0.792
relative viability (Apatinib + Olaparib; first compound 0.08 µM): 0.763
relative viability (Apatinib + Olaparib; first compound 0.253 µM): 0.748
relative viability (Apatinib + Olaparib; first compound 0.8 µM): 0.766
relative viability (Apatinib + Olaparib; first compound 2.53 µM): 0.68
relative viability (Apatinib + Olaparib; first compound 8 µM): 0.771
relative viability (Metformin + Lapatinib; first compound 10 µM): 0.716
relative viability (Metformin + Lapatinib; first compound 31.62 µM): 0.805
relative viability (Metformin + Lapatinib; first compound 100 µM): 0.801
relative viability (Metformin + Lapatinib; first compound 316.23 µM): 0.725
relative viability (Metformin + Lapatinib; first compound 1000 µM): 0.868

PC-3 [JPC-3]
relative viability (Apatinib + Tozasertib; first compound 0.08 µM): 0.904
relative viability (Apatinib + Tozasertib; first compound 0.253 µM): 0.871
relative viability (Apatinib + Tozasertib; first compound 0.8 µM): 0.78
relative viability (Apatinib + Tozasertib; first compound 2.53 µM): 0.814
relative viability (Apatinib + Tozasertib; first compound 8 µM): 0.681
relative viability (Apatinib + Alpelisib; first compound 0.08 µM): 1
relative viability (Apatinib + Alpelisib; first compound 0.253 µM): 0.996
relative viability (Apatinib + Alpelisib; first compound 0.8 µM): 0.989
relative viability (Apatinib + Alpelisib; first compound 2.53 µM): 0.938
relative viability (Apatinib + Alpelisib; first compound 8 µM): 0.888
relative viability (Apatinib + Olaparib; first compound 0.253 µM): 1.12
relative viability (Apatinib + Olaparib; first compound 0.8 µM): 0.983
relative viability (Apatinib + Olaparib; first compound 2.53 µM): 1.1
relative viability (Apatinib + Olaparib; first compound 8 µM): 1.06
relative viability (Metformin + Lapatinib; first compound 10 µM): 0.453
relative viability (Metformin + Lapatinib; first compound 31.62 µM): 0.46
relative viability (Metformin + Lapatinib; first compound 100 µM): 0.441
relative viability (Metformin + Lapatinib; first compound 316.23 µM): 0.435
relative viability (Metformin + Lapatinib; first compound 1000 µM): 0.447

NCI-H1944
relative viability (Apatinib + Tozasertib; first compound 0.08 µM): 0.23
relative viability (Apatinib + Tozasertib; first compound 0.253 µM): 0.229
relative viability (Apatinib + Tozasertib; first compound 0.8 µM): 0.239
relative viability (Apatinib + Tozasertib; first compound 2.53 µM): 0.238
relative viability (Apatinib + Tozasertib; first compound 8 µM): 0.223
relative viability (Apatinib + Alpelisib; first compound 0.08 µM): 0.868
relative viability (Apatinib + Alpelisib; first compound 0.253 µM): 0.905
relative viability (Apatinib + Alpelisib; first compound 0.8 µM): 0.74
relative viability (Apatinib + Alpelisib; first compound 2.53 µM): 0.798
relative viability (Apatinib + Alpelisib; first compound 8 µM): 0.866
relative viability (Apatinib + Olaparib; first compound 0.08 µM): 0.407
relative viability (Apatinib + Olaparib; first compound 0.253 µM): 0.378
relative viability (Apatinib + Olaparib; first compound 0.8 µM): 0.37
relative viability (Apatinib + Olaparib; first compound 2.53 µM): 0.346
relative viability (Apatinib + Olaparib; first compound 8 µM): 0.319
relative viability (Metformin + Lapatinib; first compound 10 µM): 0.686
relative viability (Metformin + Lapatinib; first compound 31.62 µM): 0.961
relative viability (Metformin + Lapatinib; first compound 100 µM): 0.931
relative viability (Metformin + Lapatinib; first compound 316.23 µM): 0.751
relative viability (Metformin + Lapatinib; first compound 1000 µM): 0.886

CAL-12T
relative viability (Apatinib + Tozasertib; first compound 0.08 µM): 0.298
relative viability (Apatinib + Tozasertib; first compound 0.253 µM): 0.34
relative viability (Apatinib + Tozasertib; first compound 0.8 µM): 0.241
relative viability (Apatinib + Tozasertib; first compound 2.53 µM): 0.198
relative viability (Apatinib + Tozasertib; first compound 8 µM): 0.191
relative viability (Apatinib + Alpelisib; first compound 0.08 µM): 1.11
relative viability (Apatinib + Alpelisib; first compound 0.253 µM): 1.13
relative viability (Apatinib + Alpelisib; first compound 0.8 µM): 1.22
relative viability (Apatinib + Alpelisib; first compound 2.53 µM): 1.04
relative viability (Apatinib + Alpelisib; first compound 8 µM): 1.04
relative viability (Apatinib + Olaparib; first compound 0.08 µM): 0.723
relative viability (Apatinib + Olaparib; first compound 0.253 µM): 0.673
relative viability (Apatinib + Olaparib; first compound 0.8 µM): 0.647
relative viability (Apatinib + Olaparib; first compound 2.53 µM): 0.638
relative viability (Apatinib + Olaparib; first compound 8 µM): 0.583
relative viability (Metformin + Lapatinib; first compound 10 µM): 0.645
relative viability (Metformin + Lapatinib; first compound 31.62 µM): 0.801
relative viability (Metformin + Lapatinib; first compound 100 µM): 0.794
relative viability (Metformin + Lapatinib; first compound 316.23 µM): 0.618
relative viability (Metformin + Lapatinib; first compound 1000 µM): 0.736
